Conditions: Liquid, Vibrating tube method

CCCCCCC [heptane]
mass density [kg/m3]
Conditions	313.18 K	333.04 K	353.06 K
1000 kPa	668.09	650.66	–
1010 kPa	–	–	632.6
2000 kPa	669.03	651.8	634.02
3000 kPa	669.97	652.94	635.41
4000 kPa	670.93	654.08	636.78
5000 kPa	–	655.23	638.15
5010 kPa	671.9	–	–
6000 kPa	672.87	656.38	639.47
7000 kPa	673.86	657.54	640.8
8000 kPa	674.87	658.65	642.1
9000 kPa	675.87	659.81	–
9010 kPa	–	–	643.4
10000 kPa	676.86	660.92	644.66
11000 kPa	677.85	662.03	645.92
12000 kPa	678.83	663.1	647.13
13000 kPa	679.81	664.2	648.37
14000 kPa	680.76	665.25	649.56
15000 kPa	681.7	666.31	650.72
16000 kPa	682.62	667.33	651.88
17000 kPa	683.53	668.33	653
18000 kPa	684.41	–	–
18030 kPa	–	669.34	654.12
19000 kPa	685.26	670.26	655.16
20000 kPa	686.11	671.2	656.22
21000 kPa	686.92	–	657.27
22000 kPa	687.67	673.01	658.25
23000 kPa	688.42	673.86	659.24
23910 kPa	689.07	–	–
24000 kPa	–	674.7	660.2
25000 kPa	689.85	675.52	661.14

— the NIST ThermoML archive (doi:10.1016/j.jct.2011.08.016)
